Assay results: patent US20230373929A1, “FUSED RING DIIMIDE DERIVATIVE, PREPARATION METHOD AND USE THEREOF” (XIANGBEI WELMAN PHARMACEUTICAL CO., LTD., priority 2020, published 2023)
Read-outs that look alike come from different tables or passages of the source.

Key:
[1] = test system: human colon cancer cells HT-29; assay: anti-proliferative activity against tumor cells, resazurin (Alamar blue) assay, HT-29; type: cell-based; details: read-out: IC50 Grades of Inhibitory Effects of Compounds on Tumor Cells, HT-29
Procedure: (§1) Objective: To test the anti-proliferative activity of the compound of the present disclosure against various tumor cells.
(§2) Test cells: human colon cancer cells (HT-29, COLO 205), human lung cancer cells (NCI-H460, A549) and human leukemia cells (HL-60, U-937).
(§3) Test method: each tumor cell was tested separately. Cells were incubated in medium at […] for 24 hours before use. The cells growing in an exponential growth phase were harvested and treated with trypsin to prepare a cell suspension, the cell suspension was centrifuged, then the cell pellet was resuspended in a small amount of fresh medium as a cell stock. The cell stock was diluted to required cell concentrations.
(§4) The test was carried out on 96-well plates; blank control groups, cell control groups and compound treatment groups were set up. In the blank control groups, only 10% PBS was added to each well, while in the cell control groups and the compound treatment groups, 100 μL of cells at the above concentration were added to each well, and then each well was filled with 200 μL of 10% PBS. The plates were placed in an incubator overnight. In the compound treatment groups, 100 μL of each test compound at different dilution concentrations was added to each well, the dilution concentrations of the compounds are as shown in Table 2.
(§5) After the addition of the drug to each well was completed, the plates were cultured in an incubator for 96 hours, 22 μL of resazurin sodium solution (Alarm blue, SIGMA R7017) was added to each well. The plates were returned to the incubator for another 4 hours of incubation and then shaken for 10 seconds after being taken out. The fluorescence value of each well were recorded at 530/590 nm.
(§6) The above operations were repeated three times.
(§7) The IC50 value of each test compound was calculated by Prism7 software. IC50 was divided into different grades according to values, that is, SS: <1 μM; S: 1-5 μM; A: 5-10 μM; B: 11-20 μM; C: 21-50 μM; D: 51-100 μM; E: >100 μM.

[2] = test system: human colon cancer cells COLO 205; assay: anti-proliferative activity against tumor cells, resazurin assay, COLO 205; type: cell-based; details: read-out: IC50 Grades of Inhibitory Effects of Compounds on Tumor Cells, COLO205
Procedure: as §1, §2, §3, §4, §5, §6, §7

[3] = test system: human lung cancer cells NCI-H460; assay: anti-proliferative activity against tumor cells, resazurin assay, NCI-H460; type: cell-based; details: read-out: IC50 Grades of Inhibitory Effects of Compounds on Tumor Cells, NCI-H460
Procedure: as §1, §2, §3, §4, §5, §6, §7

[4] = test system: human lung cancer cells A549; assay: anti-proliferative activity against tumor cells, resazurin assay, A549; type: cell-based; details: read-out: IC50 Grades of Inhibitory Effects of Compounds on Tumor Cells, A549
Procedure: as §1, §2, §3, §4, §5, §6, §7

[5] = test system: human leukemia cells HL-60; assay: anti-proliferative activity against tumor cells, resazurin assay, HL-60; type: cell-based; details: read-out: IC50 Grades of Inhibitory Effects of Compounds on Tumor Cells, HL-60
Procedure: as §1, §2, §3, §4, §5, §6, §7

[6] = test system: human leukemia cells U-937; assay: anti-proliferative activity against tumor cells, resazurin assay, U-937; type: cell-based; details: read-out: IC50 Grades of Inhibitory Effects of Compounds on Tumor Cells, U-937
Procedure: as §1, §2, §3, §4, §5, §6, §7

tumor cells = assay: anti-proliferative activity, overall comparison over all tumor cells; type: cell-based, human; details: all tested tumor cells, under the test condition of the present disclosure
Procedure: as §1, §2, §3
(§8) The test was carried out on 96-well plates; blank control groups, cell control groups and compound treatment groups were set up. In the blank control groups, only 10% PBS was added to each well, while in the cell control groups and the compound treatment groups, 100 μL of cells at the above concentration were added to each well, and then each well was filled with 200 μL of 10% PBS. […]
(§9) After the addition of the drug to each well was completed, the plates were cultured in an incubator for 96 hours, 22 μL of resazurin sodium solution (Alarm blue, SIGMA R7017) was added to each well. […] The fluorescence value of each well were recorded at 530/590 nm.
(§10) The IC50 value of each test compound was calculated by Prism7 software. […]

colon cancer cells = assay: anti-proliferative activity, colon cancer cells; type: cell-based, human; details: versus similar compounds (Compound 1d, Compound 1)
Procedure: as §1, §2, §3, §8, §9, §10

[7] = Homo sapiens, HT-29, 96 hours culture, resazurin fluorescence 530/590 nm
[8] = Homo sapiens, COLO 205, COLO205, 96 hours culture, resazurin fluorescence 530/590 nm
[9] = Homo sapiens, NCI-H460, 96 hours culture, resazurin fluorescence 530/590 nm
[10] = Homo sapiens, A549, 96 hours culture, resazurin fluorescence 530/590 nm
[11] = Homo sapiens, HL-60, 96 hours culture, resazurin fluorescence 530/590 nm
[12] = Homo sapiens, U-937, 96 hours culture, resazurin fluorescence 530/590 nm

Row | Structure (SMILES) | IC50 ([1]; Homo sapiens, HT-29, 96 h) | IC50 ([2]; Homo sapiens, COLO 205, 96 h) | IC50 ([3]; Homo sapiens, NCI-H460, 96 h) | IC50 ([4]; Homo sapiens, A549, 96 h) | IC50 ([5]; Homo sapiens, HL-60, 96 h) | IC50 ([6]; Homo sapiens, U-937, 96 h) | IC50 [1, 7] | IC50 [2, 8] | IC50 [3, 9] | IC50 [4, 10] | IC50 [5, 11] | IC50 [6, 12] | other results
1 | O=NN(CCCl)C(=O)NCCCCN1C(=O)c2cccc3cccc(c23)C1=O [Compound 1d, reference compound] | 21 to 50 µM | 21 to 50 µM | 51 to 100 µM | 21 to 50 µM | 21 to 50 µM | 11 to 20 µM | – | – | – | – | – | – | overall anti-tumor activity, comparison in words (tumor cells): inferior to that of Amonafide
2 | CN(C)C(=O)NCCN(CCCN1C(=O)c2cccc3cc4ccccc4c(c23)C1=O)[N+](=O)[O-] [Compound I-10] | – | – | – | – | – | – | 5 to 10 µM | 1 to 5 µM | 1 to 5 µM | 5 to 10 µM | 1 to 5 µM | 5 to 10 µM | –
3 | O=C(OCCOCCCCN1C(=O)c2cccc3cccc(c23)C1=O)N(CCl)CCl [Compound I-02] | – | – | – | – | – | – | – | – | – | – | – | – | IC50 ([1]; HT-29, 96 hours culture, resazurin fluorescence 530/590 nm): 5 to 10 µM; IC50 ([2]; COLO205, 96 hours culture, resazurin fluorescence 530/590 nm): 5 to 10 µM; IC50 ([3]; NCI-H460, 96 hours culture, resazurin fluorescence 530/590 nm): 5 to 10 µM; IC50 ([4]; A549, 96 hours culture, resazurin fluorescence 530/590 nm): 5 to 10 µM; IC50 ([5]; HL-60, 96 hours culture, resazurin fluorescence 530/590 nm): 5 to 10 µM; IC50 ([6]; U-937, 96 hours culture, resazurin fluorescence 530/590 nm): 5 to 10 µM
4 | CCN(C)C(=O)NCCN(CCN1C(=O)c2cccc3c2c(cc2ccccc23)C1=O)OC [Compound I-15] | – | – | – | – | – | – | 1 to 5 µM | 5 to 10 µM | 1 to 5 µM | 5 to 10 µM | 5 to 10 µM | 1 to 5 µM | –
5 | CN(C)CCN1C(=O)c2cccc3cc(N)cc(c23)C1=O [Amonafide, reference compound] | – | – | – | – | – | – | 11 to 20 µM | 5 to 10 µM | 11 to 20 µM | 1 to 5 µM | 5 to 10 µM | 11 to 20 µM | –
6 | CCSC(=O)OCCCCOCN1C(=O)c2cccc3c(C)c4ccccc4c(c23)C1=O [Compound I-12] | – | – | – | – | – | – | 5 to 10 µM | 5 to 10 µM | 5 to 10 µM | 5 to 10 µM | 11 to 20 µM | 11 to 20 µM | –
7 | O=NN(CCCl)C(=O)NCCN1C(=O)c2cccc3cc([N+](=O)[O-])cc(c23)C1=O [Compound 1, reference compound] | 21 to 50 µM | 21 to 50 µM | 11 to 20 µM | 5 to 10 µM | 11 to 20 µM | 21 to 50 µM | – | – | – | – | – | – | overall anti-tumor activity, comparison in words (tumor cells): inferior to that of Amonafide
8 | CC(C)(C)OC(=O)N1CCN(CCCN2C(=O)c3ccc4c5cccc6c(Br)ccc(c7ccc(c3c47)C2=O)c65)CC1 [Compound I-18] | – | – | – | – | – | – | 5 to 10 µM | 11 to 20 µM | 5 to 10 µM | 5 to 10 µM | 5 to 10 µM | 11 to 20 µM | –
9 | O=C(NCCNCCCCN1C(=O)c2cccc3cccc(c23)C1=O)N(CCl)CCl [Compound I-01] | 1 to 5 µM | 1 to 5 µM | 5 to 10 µM | 1 to 5 µM | 5 to 10 µM | 1 to 5 µM | – | – | – | – | – | – | –
10 | CN(N=O)C(=O)NCCCCCCNCN1C(=O)c2cccc3c2c(cc2ccc(C#N)cc23)C1=O [Compound I-17] | – | – | – | – | – | – | 1 to 5 µM | 5 to 10 µM | 1 to 5 µM | 1 to 5 µM | 5 to 10 µM | 1 to 5 µM | –
11 | CON(C)C(=O)N(C)CCCCNCCN1C(=O)c2cccc3c(N(C)C)ccc(c23)C1=O [Compound I-05] | – | – | – | – | – | – | 1 to 5 µM | 1 to 5 µM | 5 to 10 µM | 5 to 10 µM | 5 to 10 µM | 5 to 10 µM | –
12 | COc1ccc2cc3c(cc2c1)C(=O)N(COCCN(OC)C(=O)N(C)C)C3=O [Compound I-08] | – | – | – | – | – | – | 11 to 20 µM | 5 to 10 µM | 5 to 10 µM | 5 to 10 µM | 5 to 10 µM | 5 to 10 µM | –
13 | CONC(=O)NCCN(CCCCN1C(=O)c2cccc3c2c(cc2ccoc23)C1=O)OC [Compound I-20] | – | – | – | – | – | – | 5 to 10 µM | 5 to 10 µM | 5 to 10 µM | 1 to 5 µM | 5 to 10 µM | 5 to 10 µM | –
14 | O=NN(CCCl)C(=O)NCNCCN1C(=O)c2cccc3cc([N+](=O)[O-])cc(c23)C1=O [Compound I-03] | 1 to 5 µM | < 1 µM | 5 to 10 µM | 1 to 5 µM | 1 to 5 µM | 5 to 10 µM | – | – | – | – | – | – | activity relative to that of similar compounds (colon cancer cells): 50 times
15 | O=NN(CCCl)C(=O)NCCNCCCCN1C(=O)c2cccc3cccc(c23)C1=O [Compound I-04] | < 1 µM | 1 to 5 µM | 5 to 10 µM | 5 to 10 µM | 1 to 5 µM | 1 to 5 µM | – | – | – | – | – | – | activity relative to that of similar compounds (colon cancer cells): 50 times
